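Five concentrations, 48 hours, 96-well plates. GI50: concentration for 50% inhibition of growth. TGI marks complete inhibition of growth.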
Legend:
Assay in all cases: DTP human tumour cell line panel, 48 h
[1] = test system: LXFL 529 NSCLC
[2] = test system: M19-MEL melanoma
[3] = test system: XF 498 CNS
[4] = test system: DLD-1 colon
[5] = test system: T-47D breast
[6] = test system: DU-145 prostate
[7] = test system: MCF7 breast
[8] = test system: MDA-N

SMILES	TGI [1]	TGI [2]	TGI [3]	TGI [4]	GI50 [5]	TGI [5]	GI50 [6]	TGI [6]	GI50 [7]	TGI [7]	GI50 [1]	GI50 [4]	TGI [8]
COc1ccc2nc(-c3cccs3)cc(C(O)CN3CCSCC3)c2c1 (stereo not given)	91.8 µM	58.6 µM	32.1 µM	> 100 µM									
COc1ccc(-c2c3c(N)nc(-c4ccncc4)nc3nc3c2c(C)nn3-c2ccccc2)cc1					3.96 µM	> 100 µM	7.39 µM	> 100 µM	4.28 µM	> 100 µM			
O=C1/C(=C\c2c[nH]c3ccccc23)c2ccccc2N1c1c(Cl)cccc1Cl					2.01 µM	5.62 µM	1.74 µM	3.28 µM	1.74 µM	3.76 µM			
C1C[OH+]CC[OH+]CCNCC[OH+]CC[OH+]CCN1.N.[Cl-].[Pt+4]	64 µM			> 100 µM							18.2 µM	20.2 µM	
NNC(=O)/C(=C/c1ccc(Cl)cc1Cl)NC(=O)c1ccccc1	> 100 µM	> 100 µM	> 100 µM	> 100 µM									
Nc1ccccc1C#C/C=C\C#Cc1cccs1					17.4 µM	48.2 µM	10.2 µM	31.6 µM	2.34 µM	> 100 µM			
O=C1c2cccnc2C(=O)c2nc3cc(N4CCN(C5CC5)CC4)ccc3nc21					2.16 µM	6.34 µM	0.242 µM	0.833 µM	0.276 µM	1.78 µM			
NCCOCCOCCNc1nc(Cc2ccccc2)nc(NCCCN2CCCC2=O)n1					> 100 µM	> 100 µM	> 100 µM	> 100 µM	> 100 µM	> 100 µM			
CC1(C)CC(=O)c2c(C(F)(F)F)nn(-c3ccc(C(N)=O)c(NC4CCC(OC(=O)CN)CC4)c3)c2C1 (stereo not given)					0.0461 µM	> 100 µM	0.0883 µM	> 100 µM	< 0.0183 µM	> 100 µM			
C/C(=N\NS(=O)(=O)c1ccccc1)c1ccc(Cl)c(Cl)c1	> 100 µM	> 100 µM	> 100 µM	> 100 µM									
O=C(N/C(=C\c1ccc2c(c1)OCO2)c1nc2ccccc2[nH]1)c1ccccc1	97.4 µM	19.8 µM	34 µM	> 100 µM									
COc1cccc(-n2ncc3c(N/N=C/c4ccc(C(=O)NCCN(C)C)cc4)ncnc32)c1					> 22.6 µM	> 25 µM	3.18 µM	6.57 µM	3.02 µM	6.82 µM			
COC(=O)C(=O)C1(CCC(C)=O)c2ccccc2-c2c(C)ccc(C)c21 (stereo not given)	> 100 µM	> 100 µM		> 100 µM									
O=C(O)/C=C\C(=O)N1C/C(=C\c2ccccc2Cl)C(=O)/C(=C/c2ccccc2Cl)C1					4.48 µM	16.2 µM	2.43 µM	5.48 µM	1.09 µM	10.4 µM			
COc1ccc(-c2nn3c(-c4cc(F)c(Cl)cc4Cl)nnc3s2)cc1					27.5 µM	> 100 µM	29.1 µM	83 µM	11.4 µM	> 100 µM			
O=c1cc(-c2ccccc2)[nH]c2ccccc12					0.468 µM	> 100 µM	0.829 µM	> 71.4 µM	0.383 µM	> 100 µM			
COC(=O)[C@H](C[C@H](Cc1ccccc1)NC(=O)c1csc([C@@H](C[C@H](C(C)C)N(C)C(=O)[C@@H](NC(=O)[C@H]2CCCCN2C)C(C)C)OC(C)=O)n1)NC(=O)OCc1ccccc1					< 0.0009 µM	> 9 µM	< 0.0009 µM	1.31 µM	< 0.0009 µM	> 9 µM			
COc1ccc(/C=C(/C#N)C(N)=O)cc1OC						> 100 µM		> 100 µM		> 100 µM			> 100 µM
NC1C[C@H](n2cc(/C=C/Br)c(=O)[nH]c2=O)C[C@@H]1CO (stereo not given in full)	> 100 µM	> 100 µM		> 100 µM									
COC(=O)[C@@]1(C)CC[C@]2(C)CC[C@]3(C)C4=CC=C5C(=CC(=O)C(O)=C5C)[C@]4(C)[C@@H](O)C[C@@]3(C)[C@@H]2C1					3.04 µM	15.9 µM	12.3 µM	23.3 µM	11.3 µM	23.9 µM			
Cc1ccccc1[P+](Cc1ccccc1)(c1ccccc1)c1ccccc1							3.69 µM	> 100 µM	0.89 µM	> 100 µM			
COc1cc(/C=C/c2cc(O)c3cc(C(C)=O)c(=O)oc3c2)cc2c1O[C@]1(C)CC[C@@H](O)C(C)(C)[C@H]1C2					> 23.8 µM	> 53.9 µM	> 27.8 µM	> 45.6 µM		> 39.3 µM			
Cc1ccc(C(=O)c2nnc(C(=O)c3ccc(C)cc3)nn2)cc1	> 100 µM	61.5 µM		> 100 µM									
COc1cc(C2CC(c3ccc4c(c3)OCO4)=NN2C=O)cc(OC)c1OC (stereo not given)					3.34 µM	> 100 µM	2.63 µM	> 26.1 µM	1.34 µM	> 100 µM			
NCCn1c(=O)[nH]c(=O)[nH]c1=S					> 100 µM	> 100 µM	> 100 µM	> 100 µM	61.1 µM	> 100 µM			
CN(C)CCCNC(CC#N)CCC#N (stereo not given)						> 10 µM		> 10 µM		> 10 µM			> 10 µM
C=CCOc1cccc(/C=C2\SC(=Nc3ccc(O)cc3)NC2=O)c1					0.495 µM	> 100 µM	0.399 µM		0.361 µM	> 57.8 µM			
CC[C@@H](C(=O)O)C1CC[C@H](C)C([C@@H](C)[C@H](O)[C@H](C)C(=O)[C@H](CC)C2O[C@]3(C=C[C@@H](O)[C@]4(CC[C@@](C)(C5CC[C@](O)(CC)[C@H](C)O5)O4)O3)[C@H](C)C[C@@H]2C)O1 (stereo not given in full)					0.371 µM	16 µM	0.805 µM	32.4 µM	0.11 µM	13.9 µM			
Cc1ccc(NC(=O)C(=O)C(C#N)c2ccccc2C)cc1C (stereo not given)	> 100 µM		> 100 µM	> 100 µM									
COc1ccc(-c2ccc(/C=N/n3c(COc4ccc(Cl)cc4Cl)nn(CN4CCOCC4)c3=S)o2)c([N+](=O)[O-])c1					38.6 µM	> 100 µM	> 100 µM	> 100 µM	20.7 µM	77.3 µM			

Reference: PubChem BioAssay (NCI)
